Test results as given in patent US5401724A, “Therapeutic treatment of chronic myelogenous leukemia by administration of 2-chloro-2'-deoxy adenosine” (priority 1994, dated 1995).
Values belong to the molecule of their own block, whether it stands above or below them.

Experiments:
[1] = system: DHL9, Increased ribonucleotide reduction; experiment: cells; settings: Homo sapiens, 120 h, read-out: ID50
Source text: (§4) ^1 Concentration that produced 50 percent reduction in all numbers

[2] = system: delayed-type hypersensitivity; experiment: Oral and IP effects on delayed-type hypersensitivity (DTH) to ovalbumin (Example 5, first study); type: in vivo, guinea pig; settings: for effectiveness when given orally: without the protection of an enteric coating (2-CdA), preliminary in vivo studies; for inhibition of swelling compared to saline control: 24 and 48 hours after ovalbumin challenge
Experimental: (§1) Delayed-type hypersensitivity (DTH) is a cell-mediated immune response that typically takes longer than 12 hours to develop. In the guinea pig, a DTH reaction to an antigen can be established by first immunizing the animal with the antigen in an adjuvant such as Freund's complete adjuvant. Subsequent intradermal injection of the antigen causes no change for at least 10 hours, after which there is a gradual increase in erythema and swelling in response to antigen injection. This response peaks about at about 24 hours after challenge, then gradually subsides.
(§2) Histologically, the inflammatory response is characterized by intense inundation of the site with mononuclear cells, of which about half are lymphocytes and the other half monocytes. DTH is therefore an indicator of a monocyte-mediated immune reaction.
In one study, guinea pigs were sensitized to ovalbumin in adjuvant. […] The animals were then injected with ovalbumin intradermally to elicit the DTH response. The mean area of the swelling size was measured for each animal (nine or ten animals were treated for each protocol).

granulocytes [3] = settings: hairy cell leukemia, cited from earlier work
Monocytes [4] = experiment: cells; settings: Homo sapiens, Monocyte, 120 h, read-out: ID50
Source text: as §4

[5] = system: chronic myelogenous leukemia; experiment: Hematological remission in patients with stable phase CML treated with 2-CdA (Example 1); type: in vivo, human
Experimental: (§3) Each course was repeated every 28 days until the maximum hematological remission response of the treatment was achieved. The median age of the patients was 60 years, with a range of 52 to 75 years. There were 3 males and 2 females. A median of 2 courses of treatment was administered, with a range of 1 to 4 courses.
The median follow-up was 3.2 months, with a range from 1.0 to 5.7 months.

[6] = system: colony forming unit-erythroid (CFU-E) cells; settings: read-out: IC50 (concentration required to inhibit 50 percent of growth); cited from earlier work
[7] = system: Primitive burst-forming unit-erythroid (pBFU-E) cells; settings: read-out: IC50 (concentration required to inhibit 50 percent of growth); cited from earlier work
CFU-GM cells = settings: 100 nM; cited from earlier work
granulocytes [8] = experiment: Effects of 2-CdA on granulocyte counts in two non-CML (multiple sclerosis) patients (Example 3); type: in vivo, human
Source text: Those results are illustrated and discussed hereinafter in Example 3.
Granulocyte counts were obtained from two patients who were receiving 2-CdA in the treatment of a non-leukemic disease, multiple sclerosis. These patients therefore had normal granulocytes.

CEM, wild type [9] = experiment: cells; settings: Homo sapiens, 120 h, read-out: ID50
Source text: as §4

[10] = system: CEM, deoxyeytidine kinase deficient; experiment: cells; settings: Homo sapiens, 120 h, read-out: ID50
Source text: as §4

[11] = system: delayed-type hypersensitivity; experiment: Effects of different dosages of 2-CdA on DTH to ovalbumin (Example 5, second study); type: in vivo, guinea pig; settings: for inhibition of swelling compared to saline control: 24 and 48 hours post-challenge, p <0.01 by Student's t-test
Experimental: as §1, §2
Three days after treatment, the animals were challenged with ovalbumin intradermally. The areas of the skin lesions were measured at 6, 24, and 48 hours after challenge.

neutrophils = settings: chronic lymphocytic leukemia; serum levels less than 10 nM; in most cases; cited from earlier work
[12] = system: Mature BFU-E (mBFU-E) cells; settings: read-out: IC50 (concentration required to inhibit 50 percent of growth); cited from earlier work
CML in blast crisis = settings: Phase I, cited from earlier work
[13] = system: Colony forming unit-granulocyte macrophage (CFU-GM) cells; settings: read-out: IC50 (concentration required to inhibit 50 percent of growth); cited from earlier work
[14] = system: Peripheral blood lymphocytes; experiment: cells; settings: Homo sapiens, Lymphocyte, 120 h, read-out: ID50
Source text: as §4

[15] = system: CEM, Increased 5'-nucleoside; experiment: cells; settings: Homo sapiens, 120 h, read-out: ID50
Source text: as §4

[16] = system: total circulating peripheral blood granulocytes; experiment: Effect of 2-CdA on total circulating peripheral blood granulocytes in a patient with CML (Example 2); type: in vivo, human
Experimental: as §3

[17] = system: chronic myelogenous leukemia; settings: cited from earlier work; for bone marrow cells with the translocation: marrow of treated patients
[18] = pH 1, 37 degrees C.; cited from earlier work
Monocytes [19] = system: Monocytes
Source text: as §4

CEM (T cell line) = experiment: cells; settings: Homo sapiens
Source text: (§5) Of the other five cell lines, two were T cell lines, one called CEM and the other Molt-4, and the remaining three were monocyte-like cell lines, designated THP-1, U937 and HL-60, respectively.

[20] = system: Peripheral blood lymphocytes
Source text: as §4

[21] = system: THP-1 (monocyte-like cell line); experiment: cells; settings: Homo sapiens
Source text: as §5

CEM, wild type [22] = system: CEM, wild type
Source text: as §4

[23] = system: DHL9, Increased ribonucleotide reduction
Source text: as §4

K562 (myeloid cell line) = experiment: cells; settings: Homo sapiens
Experimental: (§6) Seven different cell lines were treated with varying concentrations of 2-chloro-9,1'-beta-2'-deoxy-2'-fluoro-D-arabinofuranosyladenine (CAFdA) to determine percent viability. CAFdA concentrations ranging from 0 to about 260 nM were used to treat each cell line in vitro.

[24] = system: CEM, Increased 5'-nucleoside
Source text: as §4

SB (B cell line) = experiment: cells; settings: Homo sapiens
Experimental: as §6

[25] = system: HL-60 (monocyte-like cell line); experiment: cells; settings: Homo sapiens
Source text: as §5

[26] = system: U937 (monocyte-like cell line); experiment: cells; settings: Homo sapiens, U-937
Source text: as §5

Molt-4 (T cell line) = experiment: cells; settings: Homo sapiens
Source text: as §5

[27] = 1 mg/kg, intraperitoneal, p <0.01 by Student's t-test

Molecule: Nc1nc(Cl)nc2c1ncn2[C@H]1C[C@H](O)[C@@H](CO)O1 [2-CdA, 2-chloro-2'-deoxyadenosine]
IC50 [1]: 4 µM
inhibition of swelling compared to control animals [2, 27]: significant inhibition of swelling
effect on DTH swelling, oral route ([2]; 1 mg/kg, oral, without enteric coating): ineffective
effectiveness when given orally ([2]; oral): ineffective
neutropenia (granulocytes [3]): transient neutropenia
granulocyte counts (granulocytes [3]; transient): under 500 per microliter
IC50 (Monocytes [4]): 0.022 µM
toxicity attributable to 2-CdA ([5]; 0.1 mg/kg per day continuous i.v. infusion for 7 days, 1 to 4 courses): No toxicity attributable to 2-CdA was encountered
hematological remission upon follow-up, Patient 4 ([5]; 1 course, prior hydroxyurea and α-interferon, follow-up 1.5 months): complete hematological remission
hematological remission upon follow-up, Patient 5 ([5]; 2 courses, prior hydroxyurea, follow-up 1.0 months): complete hematological remission
hematological remission upon follow-up, Patient 2 ([5]; 2 courses, prior hydroxyurea, follow-up 3.0 months): complete hematological remission
hematological remission upon follow-up, Patient 3 ([5]; 3 courses, prior hydroxyurea and α-interferon, follow-up 3.2 months): complete hematological remission
hematological remission upon follow-up, Patient 1 ([5]; 4 courses, prior hydroxyurea, follow-up 5.7 months): complete hematological remission
complete hematological remissions (normalization of peripheral leukocyte counts, platelet counts, and resolution of splenomegaly) ([5]; 5 patients, 0.1 mg/kg per day continuous i.v. infusion for 7 days, repeated every 28 days, median 2 courses): All five patients obtained complete hematological remissions
median follow-up (all patients continuing in hematologic remission) ([5]; 5 patients, range 1.0 to 5.7 months): 3.2 months
Philadelphia chromosome at follow-up ([5]; all patients): persistence of the Philadelphia chromosome
hematologic remission at follow-up, all patients ([5]; median follow-up 3.2 months): All patients continue to be in hematologic remission
IC50 [6]: 0.056 µM
IC50 [7]: 0.019 µM
reduction of CFU-GM growth (CFU-GM cells): 60%
granulocyte counts after several courses (granulocytes [8]; multiple sclerosis patients, about 0.1 mg/kg/day, seven day continuous infusion): substantially unchanged
effect on the granulocyte count (granulocytes [8]; two multiple sclerosis patients): did not affect the granulocyte count
IC50 (CEM, wild type [9]): 0.021 µM
IC50 [10]: 716 µM
inhibition of swelling compared to saline control ([11]; 0.1 mg/kg): effective at inhibiting swelling
inhibition of swelling compared to saline control ([11]; 1 mg/kg): effective at inhibiting swelling
areas of swelling, 0.1 vs 1.0 mg/kg ([11]; 0.1 and 1.0 mg/kg): substantially the same
areas of swelling compared to dexamethasone-treated animals ([11]; 0.1 and 1.0 mg/kg 2-CdA vs dexamethasone 5 mg/kg): slightly less than the value obtained with dexamethasone
neutrophil count (neutrophils): increase in neutrophil count
IC50 [12]: 0.038 µM
detectable tumor (CML in blast crisis; another of two patients): loss of detectable tumor in another patient
blast count (CML in blast crisis; one of two patients): decrease in blast count in one patient
IC50 [13]: 0.016 µM
IC50 [14]: 0.015 µM
IC50 [15]: 0.06 µM
granulocyte count ([16]; second course, day 5): 27,724 /μl
decrease from the granulocyte count at day zero ([16]; second course, day 13): > 99%
granulocyte count ([16]; second course, day 13): 210 µL⁻¹
granulocyte count ([16]; second course, day 17): 690 µL⁻¹
granulocyte count ([16]; second course, day zero (start of therapy)): 34,831 /μl
granulocyte count ([16]; third course, day 5, unit not given): 5,676 /μl
decrease from the initial granulocyte level ([16]; third course, day 14): approximately 98%
granulocyte count ([16]; third course, day 14, unit not given): 270 µL⁻¹
lower than the initial granulocyte count ([16]; third course, day 17): 95%
granulocyte count ([16]; third course, day 17, unit not given): 525 µL⁻¹
granulocyte count ([16]; third course, day zero, unit not given): 11,060 /μl

Molecule: NC(=O)NO [hydroxyurea]
bone marrow cells with the translocation [17]: still contains a predominance of cells with the translocation

Molecule: CS(=O)(=O)OCCCCOS(C)(=O)=O [busulfan]
serious complication ("busulfan lung") ([17]; CML treatment): bronchopulmonary dysplasia with pulmonary fibrosis
bone marrow cells with the translocation [17]: still contains a predominance of cells with the translocation

Molecule: Nc1ncnc2c1ncn2[C@@H]1O[C@H](CO)C[C@@H]1F [2'-fluoro-2',3'-dideoxyarabinose]
stability [18]: stable

IC50 [1]: 6 µM
IC50 (Monocytes [4]): 0.047 µM
IC50 (CEM, wild type [9]): 0.067 µM
IC50 [10]: 716 µM
IC50 [14]: 0.018 µM
IC50 [15]: 0.126 µM
Molecule: Nc1nc(Cl)nc2c1ncn2[C@@H]1O[C@H](CO)[C@@H](O)[C@@H]1F [CAFdA, 2-chloro-9,1'-beta-2'-deoxy-2'-fluoro-D-arabinofuranosyladenine]
CAFdA/2-CdA (ID50 ratio) (Monocytes [19]): 2.1
viability at 0.05 µM (CEM (T cell line)): ≤ 60%
viability at 0.06 µM (CEM (T cell line)): < 20%
viability at 0.13 µM (CEM (T cell line)): < 10%
CAFdA/2-CdA (ID50 ratio) [20]: 1.9
inhibition of swelling compared to saline control [2, 27]: significant inhibition of swelling
inhibition of swelling compared to saline control ([2]; 1 mg/kg, oral, p <0.01 by Student's t-test): significant inhibition of swelling
effectiveness when given orally ([2]; oral): effective
viability at 0.05 µM [21]: ≤ 60%
viability at 0.06 µM [21]: < 20%
viability at 0.13 µM [21]: < 10%
CAFdA/2-CdA (ID50 ratio) (CEM, wild type [22]): 3.1
CAFdA/2-CdA (ID50 ratio) [23]: 15.
viability at 0.26 µM (K562 (myeloid cell line)): 40%
CAFdA/2-CdA (ID50 ratio) [24]: 2.1
viability at 0.26 µM (SB (B cell line)): 90%
viability at 0.05 µM [25]: ≤ 60%
viability at 0.06 µM [25]: < 20%
viability at 0.13 µM [25]: < 10%
viability at 0.06 µM [26]: < 20%
viability at 0.13 µM [26]: < 10%
viability at 0.06 µM (Molt-4 (T cell line)): < 20%
viability at 0.13 µM (Molt-4 (T cell line)): < 10%

Molecule: α-interferon
bone marrow cells with the translocation [17]: sometimes loses the clone with the translocation

Molecule: C[C@@H]1C[C@H]2[C@@H]3CCC4=CC(=O)C=C[C@]4(C)[C@@]3(F)[C@@H](O)C[C@]2(C)[C@@]1(O)C(=O)CO [dexamethasone, reference compound]
inhibition of swelling compared to saline control ([2]; 5 mg/kg, intraperitoneal, p <0.01 by Student's t-test): significant inhibition of swelling
inhibition of swelling compared to saline control ([2]; 5 mg/kg, oral, p <0.01 by Student's t-test): significant inhibition of swelling
inhibition of swelling compared to saline control ([11]; 5 mg/kg): effective at inhibiting swelling

Molecule: Nc1ncnc2c1ncn2[C@@H]1O[C@H](CO)C[C@H]1F [2'-fluoro-2',3'-dideoxyribose]
stability [18]: stable
